The record followed here is publication PMC6302903, “Protein and Chemical Determinants of BL-1249 Action and Selectivity for K2P Channels” (ACS Chemical Neuroscience, 2018).

A value given as a limit tells only on which side of the number the result lay.

Common to all, as to type: cell-based
Assay [1] concerns the target T1, K2P2.1(TREK-1)Δ322 (Mus musculus, UniProt P97438).
T1 construct: truncations at residue 322, K2P2.1(TREK-1)Δ322, equivalent to a previously described mutant called Δ89; expressed in transfected cells; host or cells: Xenopus laevis oocytes, mRNA injected
As to the kind of experiment: TEVC of C-terminal truncation at residue 322. As to conditions: Xenopus oocytes, saturation not reached, fit with upper boundary of 15 (I/I0). The text has this: Constructs for murine K2P channels, including K2P2.1(TREK-1) (Gene ID 16526), K2P10.1(TREK-2) (Gene ID 72258), K2P4.1(TRAAK) (Gene ID 16528), K2P5.1(TASK-2) (Gene ID 16529), K2P3.1(TASK-1) (Gene ID 16527), K2P9.1(TASK-3) (Gene ID 223604), and K2P18.1(TRESK) (Gene ID 332396) in pGEMHE/pMO, were used for Xenopus oocyte experiments as previously described.[10],[26] Murine K2P2.1(TREK-1) (Gene ID 16526) was expressed in HEK-293 cells using a pIRES-EGFP construct as previously described.[26] Murine K2P13.1(THIK-1) (Gene ID 217826) and K2P1.1(TWIK-1) (Gene ID 16525) were cloned into pGEMHE/pMO for use in Xenopus oocytes. […]
(§1) Xenopus laevis oocytes were harvested in accordance with UCSF IACUC protocol AN129690 and digested in calcium-free ND-96 (96 mM NaCl, 2 mM KCl, 3.8 mM MgCl2) immediately following harvest, as previously described.[6],[10] […] Defolliculated stage V–VI oocytes were injected with 0.2–6.0 ng of mRNA in 50 nL, and currents were recorded 24–48 h after injection. mRNA was synthesized from plasmid DNA using mMessage mMachine Kit (T7 promoter, Ambion, Life Technologies) and purified using RNEasy Kit (Qiagen). […] Once stabilized basal currents were recorded, compounds were perfused at various concentrations in standard ND96 and currents were allowed to increase to stabilization before recording final current. […]

The target in assay [2] is TRAAK/EK-1_T (Mus musculus, UniProt O88454). In words: TEVC of C-terminal tail swap chimera TRAAK/EK-1_T. The following applies: Xenopus oocytes.
Description: Given the importance of the C-terminal tail for the BL-1249 response and the fact that the C-terminal tails of K2P2.1(TREK-1) and K2P4.1(TRAAK) vary substantially (17.6% sequence similarity, 13.5% identity), we wondered if these differences could contribute to the different potencies observed in K2P2.1(TREK-1) and K2P4.1(TRAAK) BL-1249 responses. To test this possibility, we made chimeras that swapped the C-terminal tail between K2P2.1(TREK-1) and K2P4.1(TRAAK), TREK-1/AAK_T and TRAAK/EK_T. […] Despite this modest change, it is clear that the C-terminal tail alone is not sufficient to endow the K2P4.1(TRAAK) core with a K2P2.1(TREK-1)-like BL-1249 response. […]
as §1

For assay [3], the target named is T2, K2P2.1(TREK-1) W275S (Mus musculus, UniProt P97438, W290S).
T2 construct: expressed in transfected cells; host or cells: Xenopus laevis oocytes, mRNA injected
In words: TEVC of C-type gate activating mutant W275S. The following applies: Xenopus oocytes.
Description: Diverse types of physical and chemical stimuli activate K2P2.1(TREK-1) by stabilizing the C-type gate and switching the channel into a “leak” mode that is characterized by a loss of outward rectification of the potassium current.[6],[8] Accordingly, we used inside-out patch clamp experiments of K2P2.1(TREK-1) expressed in HEK293 cells to test whether BL-1249 acts on the C-type gate. […] Together with previous single point concentration studies showing the insensitivity of K2P2.1(TREK-1) W275S in mammalian cells,[40] our data provide definitive evidence that BL-1249 activates K2P2.1(TREK-1) by stimulating the C-type gate. […]
as §1

In assay [4] the target is T3, K2P9.1(TASK-3) (Mus musculus, UniProt Q3LS21).
T3 construct: expressed in transfected cells; host or cells: Xenopus laevis oocytes (mRNA injection, pGEMHE/pMO)
As to the kind of experiment: TEVC of K2P9.1(TASK-3) in Xenopus oocytes. The following applies: concentrations up to the solubility limit (∼80 μM). The method, then: BL-1249 activates K2P2.1(TREK-1)[18],[40] and K2P10.1(TREK-2),[7] but its effects on other K2P channels have not been characterized. […] In order to test if the original 10 μM assay had missed BL-1249 effects in other K2P channels, we tested concentrations of BL-1249 up to the solubility limit (∼80 μM) against the other K2P subfamily representatives. […]
as §1, with “current. Fold activation upon compound application is expressed as I/I0 (0 mV), derived from the current at 0 mV in the presence of compound divided by the basal current at 0 mV in standard ND96 without compound. Data were analyzed and plotted using Graphpad Prism Version 5 (GraphPad Software, San Diego California USA, www.graphpad.com).” for “current.”

Chain of TRAAK/EK-1_T (O88454 1-255 limits assumed): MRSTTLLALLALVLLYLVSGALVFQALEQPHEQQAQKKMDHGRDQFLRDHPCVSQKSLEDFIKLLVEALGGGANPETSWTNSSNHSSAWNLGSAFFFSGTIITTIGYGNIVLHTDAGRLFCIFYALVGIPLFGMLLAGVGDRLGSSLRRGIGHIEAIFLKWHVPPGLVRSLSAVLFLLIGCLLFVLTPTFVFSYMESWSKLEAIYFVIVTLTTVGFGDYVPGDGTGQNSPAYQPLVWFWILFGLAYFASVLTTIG
T2 sequence (P97438 1-411 isoform P97438-2 W275S): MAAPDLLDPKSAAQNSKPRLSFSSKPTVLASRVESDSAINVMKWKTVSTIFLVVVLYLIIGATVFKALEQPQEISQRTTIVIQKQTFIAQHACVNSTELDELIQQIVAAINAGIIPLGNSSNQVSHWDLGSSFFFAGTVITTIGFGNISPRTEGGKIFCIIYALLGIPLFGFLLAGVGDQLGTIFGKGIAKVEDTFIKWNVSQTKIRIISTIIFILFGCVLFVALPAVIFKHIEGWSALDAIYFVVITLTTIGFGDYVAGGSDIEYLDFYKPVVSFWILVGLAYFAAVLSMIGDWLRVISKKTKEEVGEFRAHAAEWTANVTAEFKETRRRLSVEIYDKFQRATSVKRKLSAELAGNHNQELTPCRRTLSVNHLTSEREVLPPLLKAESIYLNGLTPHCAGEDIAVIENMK
T1 sequence (P97438 1-322 isoform P97438-2): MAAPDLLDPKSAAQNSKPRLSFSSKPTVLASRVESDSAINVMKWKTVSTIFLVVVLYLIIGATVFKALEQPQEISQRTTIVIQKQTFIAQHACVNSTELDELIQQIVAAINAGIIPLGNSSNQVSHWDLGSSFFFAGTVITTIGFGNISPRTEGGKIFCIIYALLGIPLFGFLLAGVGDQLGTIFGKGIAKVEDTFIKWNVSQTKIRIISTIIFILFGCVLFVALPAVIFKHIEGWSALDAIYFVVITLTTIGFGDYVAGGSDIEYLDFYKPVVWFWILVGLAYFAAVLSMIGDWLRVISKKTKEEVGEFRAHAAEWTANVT
T3 sequence (Q3LS21 whole entry): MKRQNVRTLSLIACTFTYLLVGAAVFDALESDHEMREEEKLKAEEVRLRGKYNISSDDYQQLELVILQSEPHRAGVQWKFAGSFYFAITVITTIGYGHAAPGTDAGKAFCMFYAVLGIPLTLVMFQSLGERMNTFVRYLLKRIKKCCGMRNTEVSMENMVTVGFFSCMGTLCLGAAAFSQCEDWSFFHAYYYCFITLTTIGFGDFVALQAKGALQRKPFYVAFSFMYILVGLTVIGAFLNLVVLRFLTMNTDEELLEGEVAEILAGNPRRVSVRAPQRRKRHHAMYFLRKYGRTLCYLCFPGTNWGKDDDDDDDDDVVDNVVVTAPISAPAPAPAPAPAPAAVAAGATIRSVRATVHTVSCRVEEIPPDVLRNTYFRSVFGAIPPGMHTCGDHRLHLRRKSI

Take `c1ccc(-c2nnn[nH]2)c(Nc2cccc3c2CCCC3)c1` [BL-1249, (5,6,7,8-tetrahydro-naphthalen-1-yl)-[2-(1H-tetrazol-5-yl)-phenyl]-amine]: in assay [1], the EC50 came out at 26 ± 8 µM. In addition, in assay [2], the 50% effective concentration (EC50) amounted to 23 ± 4 µM and the “increase in sensitivity of TRAAK/EK-1_T relative to K2P4.1(TRAAK)” value is approximately 2 fold. Moreover, in assay [3], the EC50 is more than 60 µM and the “sensitivity of K2P2.1(TREK-1) W275S to compound” value was “insensitive”. Also, the “activation of K2P9.1(TASK-3)” value in assay [4] is listed as “failed to find evidence for activation”.

As a reminder, the EC50 is the concentration giving half of the maximal effect. Read a high EC50 as weaker potency.
